Experimental data taken from patent US20020137929A1, “1 - (3-heterocyclylphenyl) isothiourea, -isourea, -guanidine and -amidine herbicidal agents” (Intellectual Property Department, BASF Aktiengesellschaft, priority 1998, published 2002).

What was measured:
[1] = test system: ABUTH (Velvetleaf); assay: Postemergence herbicidal evaluation; type: in vivo, Abutilon theophrasti; details: postemergence
Procedure, shortened: (§1)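 Two-week-old seedlings sprayed with compound in 50/50 acetone/water plus 0.5% TWEEN 20, at about 0.0156 to 0.500 kg/ha, nozzle at 40 psi. Kept in greenhouse; rated visually 4-5 weeks after treatment on a 0-9 scale versus control, repeat tests averaged.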

[2] = test system: IPOHE (Morningglory, Ivyleaf); assay: Postemergence herbicidal evaluation; type: in vivo, Ipomoea hederacea; details: postemergence
Procedure, shortened: as §1

[3] = test system: TRZAWR (Wheat, Winter, cv Riband); assay: Postemergence herbicidal evaluation; type: in vivo, Triticum aestivum; details: postemergence
Procedure, shortened: as §1

[4] = test system: CHEAL (Lambsquarters, Common); assay: Preemergence herbicidal evaluation; type: in vivo, Chenopodium album; details: rated 4-5 weeks after treatment
Procedure, shortened: (§2)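 Seeds were planted in potting soil in cups, then sprayed preemergence with the test compound in aqueous acetone at about 0.0156 to 0.500 kg per hectare. Cups were kept under greenhouse conditions and visually rated 4–5 weeks after treatment on a 0–9 scale against an untreated control.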

[5] = test system: IPOHE (Morningglory, Ivyleaf); assay: Preemergence herbicidal evaluation; type: in vivo, Ipomoea hederacea; details: rated 4-5 weeks after treatment
Procedure, shortened: as §2

[6] = test system: ECHCG (Barnyardgrass); assay: Preemergence herbicidal evaluation; type: in vivo, Echinochloa crus-galli; details: rated 4-5 weeks after treatment
Procedure, shortened: as §2

[7] = test system: SETVI (Foxtail, Green); assay: Preemergence herbicidal evaluation; type: in vivo, Setaria viridis; details: rated 4-5 weeks after treatment
Procedure, shortened: as §2

[8] = test system: ORYSAT (Rice, Tebonnet); assay: Preemergence herbicidal evaluation; type: in vivo, Oryza sativa, (L.) Tebonnet; details: rated 4-5 weeks after treatment
Procedure, shortened: as §2

[9] = test system: TRZAWR (Wheat, Winter, cv Riband); assay: Preemergence herbicidal evaluation; type: in vivo, Triticum aestivum; details: rated 4-5 weeks after treatment
Procedure, shortened: as §2

[10] = test system: ECHORC (Watergrass (Calif.)); assay: Preemergence weed control under flooded paddy conditions; type: in vivo, Echinochloa oryzoides; details: rated 3-4 weeks after treatment
Procedure, shortened: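 Seeds or propagules sown in top 0.5 cm of silt loam soil, flooded 1.5 to 3 cm above surface throughout. Compound in 50/50 v/v aqueous/acetone pipetted into flood water at about 0.0313 to 0.500 kg/ha. Visual 0-9 rating versus control after three to four weeks in greenhouse.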

[11] = test system: ECHORC (Watergrass (Calif.)); assay: Postemergence weed control under flooded paddy conditions; type: in vivo, Echinochloa oryzoides; details: postemergence weeds, rated 3 to 4 weeks after treatment
Procedure, shortened: (§3)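 With weeds 3 to 5 cm tall and rice at the 1.5 to 2.5 leaf stage, containers were flooded and water held 1.5 to 3 cm above soil. Compounds in 50/50 v/v aqueous/acetone went into the flood water at about 0.0313 to 0.500 kg/ha a.i. Effects were visually rated 0–9 against controls after three to four weeks in the greenhouse.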

[12] = test system: CYPIR (Rice Flatsedge); assay: as above; type: in vivo, Cyperus iria; details: postemergence weeds, rated 3 to 4 weeks after treatment
Procedure, shortened: as §3

CCOC(=O)C(c1ccc(Cl)cc1)N1C(=O)CSC1=Nc1cc(-n2c(=O)cc(C(F)(F)F)n(C)c2=O)c(F)cc1Cl (racemic) [Compound 79, Ethyl α-(p-chlorophenyl)-2-{{2-chloro-5-[3,6-dihydro-3-methyl-2,6-dioxo-4-(trifluoromethyl)-1(2H)-pyrimidinyl]-4-fluorophenyl}imino}-4-oxo-3-thiazolidineacetate, DL-]
1.0: Preemergence herbicidal rating IPOHE ([5]; rate 0.2500 kg/ha) | Preemergence herbicidal rating SETVI ([7]; rate 0.0313 kg/ha) | Preemergence herbicidal rating SETVI ([7]; rate 0.0625 kg/ha) | Preemergence herbicidal rating SETVI ([7]; rate 0.1250 kg/ha) | Preemergence herbicidal rating ORYSAT ([8]; rate 0.0625 kg/ha) | Preemergence herbicidal rating ORYSAT ([8]; rate 0.2500 kg/ha) | Preemergence herbicidal rating TRZAWR ([9]; rate 0.0625 kg/ha) | Preemergence herbicidal rating TRZAWR ([9]; rate 0.2500 kg/ha)
4.0: Preemergence herbicidal rating SETVI ([7]; rate 0.2500 kg/ha)
9.0: ABUTH herbicidal rating ([1]; rate 0.0158 kg/ha) | ABUTH herbicidal rating ([1]; rate 0.0315 kg/ha) | ABUTH herbicidal rating ([1]; rate 0.0630 kg/ha) | IPOHE herbicidal rating ([2]; rate 0.0158 kg/ha) | IPOHE herbicidal rating ([2]; rate 0.0315 kg/ha) | IPOHE herbicidal rating ([2]; rate 0.0630 kg/ha) | Preemergence herbicidal rating CHEAL ([4]; rate 0.0313 kg/ha) | Preemergence herbicidal rating CHEAL ([4]; rate 0.0625 kg/ha) | Preemergence herbicidal rating CHEAL ([4]; rate 0.1250 kg/ha) | Preemergence herbicidal rating CHEAL ([4]; rate 0.2500 kg/ha)
0.0: Preemergence herbicidal rating IPOHE ([5]; rate 0.0313 kg/ha) | Preemergence herbicidal rating IPOHE ([5]; rate 0.0625 kg/ha) | Preemergence herbicidal rating IPOHE ([5]; rate 0.1250 kg/ha) | Preemergence herbicidal rating ECHCG ([6]; rate 0.0313 kg/ha) | Preemergence herbicidal rating ECHCG ([6]; rate 0.0625 kg/ha) | Preemergence herbicidal rating ECHCG ([6]; rate 0.1250 kg/ha) | Preemergence herbicidal rating ECHCG ([6]; rate 0.2500 kg/ha) | Preemergence herbicidal rating ORYSAT ([8]; rate 0.0313 kg/ha) | Preemergence herbicidal rating ORYSAT ([8]; rate 0.1250 kg/ha) | Preemergence herbicidal rating TRZAWR ([9]; rate 0.0313 kg/ha) | Preemergence herbicidal rating TRZAWR ([9]; rate 0.1250 kg/ha) | Herbicidal rating CYPIR ([12]; Rate 0.0313 kg/ha) | Herbicidal rating CYPIR ([12]; Rate 0.0625 kg/ha)
2.5: TRZAWR herbicidal rating ([3]; rate 0.0315 kg/ha)
2.0: Herbicidal rating CYPIR ([12]; Rate 0.1250 kg/ha)
6.0: ECHORC herbicidal effect rating ([10]; 0.0625 kg/ha) | Herbicidal rating ECHORC ([11]; Rate 0.0625 kg/ha) | Herbicidal rating CYPIR ([12]; Rate 0.2500 kg/ha)
8.0: ECHORC herbicidal effect rating ([10]; 0.2500 kg/ha) | Herbicidal rating ECHORC ([11]; Rate 0.2500 kg/ha)
7.0: ECHORC herbicidal effect rating ([10]; 0.1250 kg/ha) | Herbicidal rating ECHORC ([11]; Rate 0.1250 kg/ha)
3.0: TRZAWR herbicidal rating ([3]; rate 0.0158 kg/ha)
5.0: TRZAWR herbicidal rating ([3]; rate 0.0630 kg/ha) | ECHORC herbicidal effect rating ([10]; 0.0313 kg/ha) | Herbicidal rating ECHORC ([11]; Rate 0.0313 kg/ha)

COC(=O)[C@H](Cc1ccc([N+](=O)[O-])cc1)N1C(=O)CSC1=Nc1cc(-n2c(=O)cc(C(F)(F)F)n(C)c2=O)c(F)cc1Cl [Compound 78, Methyl 2-{{2-chloro-5-[3,6-dihydro-3-methyl-2,6-dioxo-4-(trifluoromethyl)-1(2H)-pyrimidinyl]-4-fluorophenyl}imino}-4-oxo-α-(p-nitrobenzyl)-3-thiazolidineacetate, L-]
7.0: ABUTH herbicidal rating ([1]; rate 0.0158 kg/ha) | ECHORC herbicidal effect rating ([10]; 0.0313 kg/ha) | ECHORC herbicidal effect rating ([10]; 0.0625 kg/ha) | Herbicidal rating ECHORC ([11]; Rate 0.0313 kg/ha) | Herbicidal rating ECHORC ([11]; Rate 0.0625 kg/ha)
9.0: ABUTH herbicidal rating ([1]; rate 0.0315 kg/ha) | ABUTH herbicidal rating ([1]; rate 0.0630 kg/ha) | IPOHE herbicidal rating ([2]; rate 0.0158 kg/ha) | IPOHE herbicidal rating ([2]; rate 0.0315 kg/ha) | IPOHE herbicidal rating ([2]; rate 0.0630 kg/ha) | Preemergence herbicidal rating CHEAL ([4]; rate 0.0156 kg/ha) | Preemergence herbicidal rating CHEAL ([4]; rate 0.0313 kg/ha) | Preemergence herbicidal rating CHEAL ([4]; rate 0.0625 kg/ha) | Preemergence herbicidal rating CHEAL ([4]; rate 0.1250 kg/ha) | Preemergence herbicidal rating CHEAL ([4]; rate 0.2500 kg/ha) | ECHORC herbicidal effect rating ([10]; 0.1250 kg/ha) | ECHORC herbicidal effect rating ([10]; 0.2500 kg/ha) | Herbicidal rating ECHORC ([11]; Rate 0.1250 kg/ha) | Herbicidal rating ECHORC ([11]; Rate 0.2500 kg/ha) | Herbicidal rating CYPIR ([12]; Rate 0.2500 kg/ha)
5.0: Herbicidal rating CYPIR ([12]; Rate 0.0313 kg/ha) | Herbicidal rating CYPIR ([12]; Rate 0.0625 kg/ha)
1.0: Preemergence herbicidal rating ECHCG ([6]; rate 0.2500 kg/ha)
6.0: Preemergence herbicidal rating SETVI ([7]; rate 0.2500 kg/ha) | Herbicidal rating CYPIR ([12]; Rate 0.1250 kg/ha)
3.5: TRZAWR herbicidal rating ([3]; rate 0.0315 kg/ha) | TRZAWR herbicidal rating ([3]; rate 0.0630 kg/ha)
3.0: TRZAWR herbicidal rating ([3]; rate 0.0158 kg/ha) | Preemergence herbicidal rating IPOHE ([5]; rate 0.2500 kg/ha)
0.0: Preemergence herbicidal rating IPOHE ([5]; rate 0.0156 kg/ha) | Preemergence herbicidal rating IPOHE ([5]; rate 0.0313 kg/ha) | Preemergence herbicidal rating IPOHE ([5]; rate 0.0625 kg/ha) | Preemergence herbicidal rating IPOHE ([5]; rate 0.1250 kg/ha) | Preemergence herbicidal rating ECHCG ([6]; rate 0.0156 kg/ha) | Preemergence herbicidal rating ECHCG ([6]; rate 0.0313 kg/ha) | Preemergence herbicidal rating ECHCG ([6]; rate 0.0625 kg/ha) | Preemergence herbicidal rating ECHCG ([6]; rate 0.1250 kg/ha) | Preemergence herbicidal rating SETVI ([7]; rate 0.0156 kg/ha) | Preemergence herbicidal rating SETVI ([7]; rate 0.0313 kg/ha) | Preemergence herbicidal rating SETVI ([7]; rate 0.0625 kg/ha) | Preemergence herbicidal rating SETVI ([7]; rate 0.1250 kg/ha) | Preemergence herbicidal rating ORYSAT ([8]; rate 0.0156 kg/ha) | Preemergence herbicidal rating ORYSAT ([8]; rate 0.0313 kg/ha) | Preemergence herbicidal rating ORYSAT ([8]; rate 0.0625 kg/ha) | Preemergence herbicidal rating ORYSAT ([8]; rate 0.1250 kg/ha) | Preemergence herbicidal rating ORYSAT ([8]; rate 0.2500 kg/ha) | Preemergence herbicidal rating TRZAWR ([9]; rate 0.0156 kg/ha) | Preemergence herbicidal rating TRZAWR ([9]; rate 0.0313 kg/ha) | Preemergence herbicidal rating TRZAWR ([9]; rate 0.0625 kg/ha) | Preemergence herbicidal rating TRZAWR ([9]; rate 0.1250 kg/ha) | Preemergence herbicidal rating TRZAWR ([9]; rate 0.2500 kg/ha)
